Source: US5064815A, “Primycin-containing colloidal basic gel” (Chinoin Gyogyszer es Vegyeszeti Termekek Gyara RT., priority 1985, dated 1991)
Counter-ions that a name gives are not always drawn. Like-named read-outs stand apart in the source and are kept apart here.

Tests used:
[1] = Spontaneous gel-formation with solvents / with N-methyl-pyrrolidone / mixed gels; type: physicochemical
Description: We have studies spontaneous gel-formation with various solvents on the one hand and various pharmaceutical active ingredients on the other. The following solvents are used: methanol, ethanol, isopropanol, n-butanol, isobutanol, dichloromethane, chloroform, carbon tetrachloride, ethyl acetate, acetonitrile, n-hexane, petrol, benzene, toluene, petrolether, ether, dimethyl formamide, dimethyl sulfoxide, isopropyl myristate.
Furtheron gel-formation has been studied between N-methyl-pyrrolidone and further pharmaceutical active ingredients. The following active ingredients are used: gentamycin, doxycyclin, oxolinic acid, nalidixic acid, drotaverin, theophyllin, acetyl salicylic acid, papaverin, indomethacin.
We have studied furtheron the possibility of the preparation of mixed gels comprising two active ingredients, including antibiotics other then primycin (e.g. gentamicin, doxycyclin, oxytetracyclin, chloramphenicol etc.).

[2] = Solubility in N-methyl pyrrolidone; type: physicochemical; conditions: for Behaviour of heated N-methyl pyrrolidone solution on cooling: significant heating needed
Description: We have examined the quantity in ml of N-methyl-pyrrolidone which is necessary to dissolve 0.1 gram of each respective compound.

acne = conditions: human, in vivo
gram-positive bacteria = conditions: cited from earlier work

Molecule	Gel formation with N-methyl-pyrrolidone [1]	Required amount of N-methyl pyrrolidone necessary to dissolve 0.1 g ([2]; (A) Room Temperature)	Required amount of N-methyl pyrrolidone necessary to dissolve 0.1 g ([2]; (B) Under Heating)	also measured
CCn1cc(C(=O)O)c(=O)c2cc3c(cc21)OCO3 [oxolinic acid]	None of the above active ingredients form a stable transparent gel	does not dissolve	8.0 milliliters	Behaviour of heated N-methyl pyrrolidone solution on cooling [2]: precipitates after
C[C@@H]1[C@H](O)[C@@H](C)/C=C/C=C/CC/C=C/C=C/C=C/C=C/C(O[C@H]2O[C@H](C)[C@@H](O)[C@H](N)[C@@H]2O)CC2O[C@](O)(CC(O)C(O)CCC(O)CC(O)CC(O)CC(=O)O[C@H]1C)CC(O)C2C(=O)O (stereo partly drawn) [Nystatin]		5.0 milliliters	2.0 milliliters	
[5-(18-(α-D-arabinofuranosyloxy)-2-butyl-3,7,11,15,19,21,23,25,27-nonahydroxy-4,16,32,34-tetramethyl-1-oxo-oxacyclohexatriaconta-16,32-dien-35- yl)-4-hydroxyhexyl]-guanidinium-sulfate [Primycin]	spontaneous gel-formation resulting in the formation of a stable transparent gel	does not dissolve	0.5 milliliters	Pure gel formation with other solvents ([1]; ethanol amine, diethanol amine, triethanol amine, dimethyl formamide, dimethyl sulfoxide, 5-30%): pure gel is formed neither in the cold nor in the warm; Stable gel formation with solvents ([1]; methanol, ethanol, isopropanol, n-butanol, isobutanol, dichloromethane, chloroform, carbon tetrachloride, ethyl acetate, acetonitrile, n-hexane, petrol, benzene, toluene, petrolether, ether, dimethyl formamide, dimethyl sulfoxide, isopropyl myristate): None of the above solvents forms a stable gel with primycin; Absorption into the blood stream (acne): not to be absorbed by the blood stream; Skin irritation on topical application (acne): severe irritation to the skin; Toxicity upon entry into the bloodstream (acne): significantly toxic; Precipitation from 1% solutions (1% solutions prepared under heating, on cooling): primycin precipitated upon cooling; Solubility, dissolved material (methanol): 2 µg/mL; Solubility, dissolved material (propylene glycol): 5 µg/mL; Solubility, dissolved material (water): 0.05 µg/mL; Effect in combination with other antibiotics (gram-positive bacteria; Hungarian patent No. 158,241): synergistic effect; Antibacterial spectrum (gram-positive bacteria; prior art): particularly effective against gram-positive bacteria but active against polyresistant human pathogenic strains as well; Resistance development (gram-positive bacteria; prior art): No resistance has developed; Solubility in N-methyl-pyrrolidone (in words) [2]: not easily dissolved; Temperature-dependance of the solubility [2]: more than two orders of magnitude
Cn1c(=O)c2[nH]cnc2n(C)c1=O [theophyllin]	None of the above active ingredients form a stable transparent gel			
CCOc1ccc(/C=C2\NCCc3cc(OCC)c(OCC)cc32)cc1OCC [drotaverin]	None of the above active ingredients form a stable transparent gel			
CC(=O)OCC(=O)[C@@]1(O)CC[C@H]2[C@@H]3CCC4=CC(=O)CC[C@]4(C)[C@H]3[C@@H](O)C[C@@]21C [Hydrocortisone-Acetate]		1.0 milliliters	0.2 milliliters	
gentamycin	None of the above active ingredients form a stable transparent gel			
CCCSc1ccc2nc(NC(=O)OC)[nH]c2c1 [Albendazole]		1.5 milliliters	1.0 milliliters	
CCn1cc(C(=O)O)c(=O)c2ccc(C)nc21 [nalidixic acid]	None of the above active ingredients form a stable transparent gel	does not dissolve	6.0 milliliters	Behaviour of heated N-methyl pyrrolidone solution on cooling [2]: precipitates after cooling
COc1ccc2c(c1)c(CC(=O)O)c(C)n2C(=O)c1ccc(Cl)cc1 [indomethacin]	None of the above active ingredients form a stable transparent gel			
COc1ccc(Cc2nccc3cc(OC)c(OC)cc23)cc1OC [papaverin]	None of the above active ingredients form a stable transparent gel			
CC(=O)Oc1ccccc1C(=O)O [acetyl salicylic acid]	None of the above active ingredients form a stable transparent gel			
[H]/N=C(/N)N[C@H]1[C@H](O)[C@@H](O)[C@H](O[C@@H]2O[C@@H](C)[C@](O)(C=O)[C@H]2O[C@@H]2O[C@@H](CO)[C@H](O)[C@@H](O)[C@@H]2NC)[C@@H](N/C(N)=N\[H])[C@@H]1O [Streptomycin Sulfate]		20.0 milliliters	does not dissolve	
C[C@H]1c2cccc(O)c2C(O)=C2C(=O)[C@]3(O)C(O)=C(C(N)=O)C(=O)[C@@H](N(C)C)[C@@H]3[C@@H](O)[C@@H]21 [doxycyclin]	None of the above active ingredients form a stable transparent gel	10.0 milliliters	2.0 milliliters	
